Measurements published in patent publication US7960168B2, “Biologically active substance transfer sheet, cell culture kit constituted of cell culture plate and biologically active substance transfer sheet, producing method thereof and method for screening cell culture conditions utilizing the same” (Canon Kabushiki Kaisha, priority 2003, dated 2011).

Columns and labels:
Type in all cases: cell-based
nerve cell strain PC12 = test: PC12 culture with immobilized EGF and dissolved EGF/NGF, hematoxilin-eosin staining (Example 6); details: PC12, 48 hours
Experimental: An epidermal cell growth factor (EGF) and a nerve cell growth factor (NGF) were employed as the biologically active substances. A culture plate of polystyrene 96-well cell culture plate was prepared by a process similar to that in Example 5, providing areas (wells) where EGF was immobilized with stepwise concentrations, and control areas (wells) of no immobilization. Separately, a stretchable polyolefin sheet was coated with hydroxypropyl cellulose by using a bar coater and heated for 10 minutes at 60° C. to form a holding layer. Then EGF and NGF were provided on the sheet by using a Canon ink jet printer PIXUS950i to obtain a transfer sheet on which areas carrying EGF and NGF singly or in combination. Screening was conducted with these cell culture plate and transfer sheet.
The transfer sheet was placed on the cell culture plate sterilized in advance with a sterilizing lamp and filled with a culture liquid, then the areas carrying biological substance(s) of the sheet were brought into contact with the culture liquid in the wells by pushing the opposite surface of the sheet with a pointed article, and the contact was maintained for 15 minutes under light shaking to dissolve the biologically active substance in the culture liquid. […]

[1] = tested on: mouse skeletal muscle cell strain C2C12; test: C2C12 culture with transfer sheet carrying b-FGF, IGF-I and BMP-2, microscope observation (Example 1); details: C2C12, 96 hours culture
Experimental: Basic fibroblast cell growth factor (b-FGF), insulin-like growth factor (IGF-I) and bone morphogenetic protein (BMP-2) were used as the biologically active substance. b-FGF was dissolved in a physiological saline solution, IGF-I in 10 mM acetic acid, and BMP-2 in 4 mM hydrochloric acid to prepare solutions each containing the biologically active substance at a concentration of 20 μg/ml and 5% glycerin. Ink cartridges were washed with 70% ethanol, to which the respective solutions prepared above were filled.
Then, on a base of a polyolefin sheet (NOVIX-II® manufactured by Asahi Techno Glass), sterilized in advance with a sterilizing lamp, the biologically active substances were discharged by using an ink jet printer (Ink jet printer F930, Canon). […]
The cells after the culture were treated with 10% formalin for 15 minutes and then with methanol for 15 minutes, and finally with a 1000-fold dilution of fluorescent dye (TOTO-3 manufactured by Molecular Probe) for 30 minutes for fluorescent staining of DNA. […] Also the cells were subjected to freeze-fracture and the creatinkinase (KP) and alkaliphosphatase (ALP) activities were measured.

[2] = tested on: mouse skeletal muscle cell strain C2C12; test: C2C12 culture with sequential transfer sheets A and B, CK and ALP activities (Example 2); details: C2C12, areas containing IGF-I only
Description: As the biologically active substances, fibroblast cell growth factor-2 (FGF-2), insulin-like growth factor-I (IGF-I), bone morphogenetic protein-2 (BMP-2) and transforming growth factor-β (TGF-β) were employed.
A DMEM culture liquid containing 2% FBS was put into wells of two 96-well transparent microplates 1 and 2. […] In this manner, the sheet A was used to provide FGF-2 and IGF-I to the microplate 1, and the sheet B was used to provide BMP-2 and TGF-β to the microplate 2. Then, in each well of each microplate, cells of mouse skeletal muscle cell strain C2C12 were cultured for 48 hours in humidified air supplied with 5% CO2. 48 hours after the start of the culture, the culture liquid was removed from each cell by suction. After fresh 2% FBS/DMEM was added to each well, a transfer sheet B was applied to the microplate 1 to supply BMP-2 and TGF-β, while a transfer sheet B was applied to the microplate 2 to supply FGF-2 and IGF-I, and the cell culture was conducted for further 48 hours.

[3] = tested on: mouse skeletal muscle cell strain C2C12; test: C2C12 culture on plate with immobilized b-FGF and IGF-I and BMP-2 transfer sheet, optical microscope (Example 5); details: C2C12, 96 hours
Experimental: The following method was employed for acting biologically active substances in combination on cells. As the biologically active substances, there were employed basic fibroblast cell growth factor (b-FGF), insulin-like growth factor (IGF-I) and bone morphogenetic protein (BMP-2).
First, bFGF and IGF-I were immobilized onto a polystyrene 96-well cell culture plate in the following manner.
On the cell culture plate coated with poly-L-lysine, a solution (1.5 mg/ml) of active dextran activated with tresyl chloride was added to bind the activated dextran to the plate. Then carbonate buffer solutions containing b-FGF and IGF-I respectively were prepared, applied to the microplate with various amounts. The microplate was left to stand for 12 hours at 4° C. to prepare a cell culture plate including areas where b-FGF and IGF-I were immobilized either singly or in combination with different concentrations, as well as control areas without immobilization.
A polystyrene sheet having projections corresponding the wells of the microplate was provided and sterilized. […]
Then the cells were treated with 10% formalin for 15 minutes and then with methanol for 15 minutes, and reacted with a fluorescent dye for 30 minutes for fluorescent staining of DNA. […] Thus the complex effects of three factors, namely immobilized bFGF, soluble IGF-I and BMP-2, to the cells were analyzed.

[4] = tested on: mouse skeletal muscle cell strain C2C12; test: C2C12 culture with BMP-2, sustained-release IGF-I and timed FGF-2 addition, ALP staining (Example 3)
Experimental: On the other hand, the 20 μg/ml solution of the insulin-like growth factor (IGF-I) contained 5% glycerin and 3% styrene-acrylic resin monoethanolamine salt (average molecular weight 8,000, acid value 250) for controlled release of IGF. Ink cartridges were washed with 70% ethanol, and were filled with the respective solutions of the biologically active substances.
Each polyolefin sheet was processed in advance to have minute holes at positions corresponding to the wells of a 96 well plate to allow gas exchange. A DMEM culture liquid containing FBS by 2% was put in wells of five 96-well transparent microplates. […] Then, in each well, cells of a mouse skeletal muscle cell strain C2C12 were added. Next, a transfer sheet carrying IGF-I was superimposed on each of the microplate and pressed from the above using the above jig so that each region of the sheet came in contact with the culture liquid in each well to gradually release IGF-I into the culture liquid, and cell culture was started. The above operations were carried out in the same manner with the five microplates. After a predetermined time from the start of the culture, the transfer sheet of one of the microplates was replaced by a transfer sheet carrying FGF-2 to dissolve FGF-2 into the culture liquid. After that the transfer sheet was replaced by the previous IGF-I sheet and the culture was continued. All the cells were cultured for 114 hours in total at 37° C., in humidified air containing 5% CO2. The FGF-2 addition was conducted at the following points:
(1) immediately after the start of culture;
(2) 12 hours after the start of culture;
(3) 24 hours after the start of culture;
(4) 48 hours after the start of culture;
(5) 72 hours after the start of culture.

EGF: epidermal cell growth factor, immobilized on the plate or dissolved from the sheet
effect on proliferation and differentiation (nuclei and cell morphology), immobilized state versus dissolved state (nerve cell strain PC12): affected the PC12 cells differently

IGF-I: insulin-like growth factor used as biologically active substance
differentiation into muscle cells (microscope observation) ([1]; areas containing IGF-I): accelerated depending on the concentrations
muscle differentiation (CK relative activity) [2]: accelerated
muscle differentiation (optical microscope) ([3]; areas containing IGF-I): muscle differentiation

b-FGF: Basic fibroblast cell growth factor, a cell growth factor used as biologically active substance
cell proliferation (microscope observation) ([1]; areas containing b-FGF): accelerated depending on the concentrations
ALP staining (index for bone differentiation by BMP-2) ([4]; FGF-2 added (1) immediately after the start of culture): stained portions were scarcely observed
ALP staining (index for bone differentiation by BMP-2) ([4]; FGF-2 added (2) 12 hours after the start of culture): stained portions were scarcely observed
ALP staining (index for bone differentiation by BMP-2) ([4]; FGF-2 added (3) 24 hours after the start of culture): portions stained with ALP were confirmed
ALP staining (index for bone differentiation by BMP-2) ([4]; FGF-2 added (4) 48 hours after the start of culture): portions stained with ALP were confirmed
ALP staining (index for bone differentiation by BMP-2) ([4]; FGF-2 added (5) 72 hours after the start of culture): portions stained with ALP were confirmed
bone differentiation from muscle cells into bone cells ([4]; adding FGF-2 within 24 hours after the start of the culture): significantly suppressed
cell proliferation (optical microscope) ([3]; areas containing immobilized b-FGF): cell proliferation
